Reference: patent publication US20140314857A1, “FORMULATIONS FOR ENHANCED BIOAVAILABILITY OF ZANAMIVIR” (priority 2012, published 2014)
Values joined by “and” are separate entries in the source; they are usually repeats but may differ in a detail not shown here. Identical values can stand only once.

Test: Intraduodenal bioavailability of zanamivir from glycerol and PBS formulations, enhancer pre-dose (Example 6)
Settings: for half-life: t1/2, ID 1.5 mg/animal
Excerpt: Male Sprague-Dawley rats (Hilltop Labs), 3 animals per treatment group, 250-350 grams in weight, were fitted with a jugular vein cannula (JVC). Animals intended for intraduodenal dosing were also fitted with one or more intraduodenal cannula (IDC) and those intended for intravenous dosing were fitted with a second JVC. Food was withheld from the animals for a minimum of twelve hours prior to test article administration and was returned approximately four hours post-dose. Water was supplied ad libitum.
Intraduodenal doses composed of 1.5 mg of zanamivir and varying amounts of an enhancer (glycerol or Capmul MCM L8) were injected directly into the duodenum via the IDC. Intravenous dosing was conducted by the injection of 1.5 mg of zanamivir in 200 μL of PBS through a JVC. For some experiments, the absorption enhancer was administered intraduodenally 2 hr prior to administering 1.5 mg of zanamivir in PBS through a second IDC. Each intraduodenal dose was followed with the introduction of a small air bubble (˜10 μL) in the cannula followed by a flush of 125 μL of PBS to ensure the dose was given in full. The volume of PBS used for cannula flush was consistent across the treatment groups. The cannula was tied to prevent the PBS remaining in the cannula from entering the duodenum.
Blood samples collected via the JVC, approximately 400 μL each, were obtained at 2 min, 5 min, 15 min, 30 min, 60 min, 90 min, and 120 min, with sodium heparin used as an anti-coagulant. Each sample was placed into a chilled tube containing the anticoagulant and kept on ice until centrifugation at 4° C., 3,000×g, for 5 min. The plasma supernatants were stored at −70° C. until LC-MS analysis.
Dosing solution samples were assayed by LC-MS/MS using electrospray ionization. The chromatographic system consisted of Perkin Elmer series 200 micropumps and autosampler equipped with a Waters Atlantic® HILIC Silica 3 μM, 2.1×50 mm column. The mass spectrometer was a PE Sciex API 4000 with electrospray interface in multiple reaction monitoring mode. […] Stock solutions (1 mg/mL zanamivir) were prepared in water. Standards (eight concentrations) were prepared in the appropriate matched matrix (HBSSg or Sprague-Dawley rat plasma containing sodium heparin) and diluted 50-fold with methanol. Experimental samples were treated identically.
Standards and samples were prepared in Sprague Dawley rat plasma containing sodium heparin as an anticoagulant. An eight-point calibration curve was prepared at concentrations of 1000, 750, 500, 250, 100, 50, 25, and 10 ng/mL by serial dilution. Standard samples were treated identically to the study samples.
Plasma samples were extracted by protein precipitation in methanol.
In this example, the bioavailability of Zanamivir was evaluated after intraduodenal doses in male Sprague-Dawley rats. The test compound was dosed at 1.5 mg/animal through intraduodenal routes from glycerol and PBS formulations. Plasma levels were determined by LC-MS/MS analysis. Pharmacokinetic parameters were estimated by a non-compartmental model using WinNonlin v5.2.1 software.

CC(=O)NC1C(NC(=N)N)C=C(C(=O)O)OC1C(O)C(O)CO (stereo not drawn) [Zanamivir, 5-acetamido-4-guanidino-6-(1,2,3-trihydroxypropyl)-5,6-dihydro-4H-pyran-2-carboxylic acid]
Plasma concentration (ID 1.5 mg/animal, 50 µL PBS, 50 µL blank Capmul MCM L8 -2 hr, 0.25 hr, individual rats): 27.1 ng/mL and 28.1 ng/mL | Plasma concentration (ID 1.5 mg/animal, 50 µL PBS, 50 µL blank Capmul MCM L8 -2 hr, 0.5 hr, individual rats): 34.5 ng/mL and 42.9 ng/mL | Plasma concentration (ID 1.5 mg/animal, 50 µL PBS, 50 µL blank Capmul MCM L8 -2 hr, 0.83 hr, individual rats): 18.1 ng/mL and 8.00 ng/mL and 6.27 ng/mL | Plasma concentration (ID 1.5 mg/animal, 50 µL PBS, 50 µL blank Capmul MCM L8 -2 hr, 1.0 hr, individual rats): 33.1 ng/mL and 32.1 ng/mL | Plasma concentration (ID 1.5 mg/animal, 50 µL PBS, 50 µL blank Capmul MCM L8 -2 hr, 1.5 hr, individual rats): 61.5 ng/mL and 23.2 ng/mL and 31.4 ng/mL | Plasma concentration (ID 1.5 mg/animal, 50 µL PBS, 50 µL blank Capmul MCM L8 -2 hr, 2.0 hr, individual rats): 68.3 ng/mL and 14.8 ng/mL and 18.2 ng/mL | Tmax (ID 1.5 mg/animal, 50 µL PBS, 50 µL blank Capmul MCM L8 -2 hr, individual rats): 2.00 h | Plasma concentration (ID 1.5 mg/animal, 50 µL PBS, 150 µL blank glycerol -2 hr, 0.25 hr, individual rats): 65.2 ng/mL and 28.9 ng/mL and 61.2 ng/mL | Plasma concentration (ID 1.5 mg/animal, 50 µL PBS, 150 µL blank glycerol -2 hr, 0.5 hr, individual rats): 40.1 ng/mL and 72.3 ng/mL | Plasma concentration (ID 1.5 mg/animal, 50 µL PBS, 150 µL blank glycerol -2 hr, 0.83 hr, individual rats): 22.7 ng/mL and 1.47 ng/mL and 48.9 ng/mL | Plasma concentration (ID 1.5 mg/animal, 50 µL PBS, 150 µL blank glycerol -2 hr, 1.0 hr, individual rats): 39.8 ng/mL and 38.4 ng/mL | Plasma concentration (ID 1.5 mg/animal, 50 µL PBS, 150 µL blank glycerol -2 hr, 1.5 hr, individual rats): 45.8 ng/mL and 34.5 ng/mL | Plasma concentration (ID 1.5 mg/animal, 50 µL PBS, 150 µL blank glycerol -2 hr, 2.0 hr, individual rats, BLOQ = below 10 ng/mL): 54.8 ng/mL | Tmax (ID 1.5 mg/animal, 50 µL PBS, 150 µL blank glycerol -2 hr, individual rats): 1.50 h | Plasma concentration (ID 1.5 mg/animal, 100 µL Glycerol, 0.25 hr, individual rats): 76.4 ng/mL and 40.7 ng/mL | Plasma concentration (ID 1.5 mg/animal, 100 µL Glycerol, 0.5 hr, individual rats): 59.2 ng/mL and 35.6 ng/mL | Plasma concentration (ID 1.5 mg/animal, 100 µL Glycerol, 0.83 hr, individual rats): 55.4 ng/mL and 78.4 ng/mL and 37.5 ng/mL | Plasma concentration (ID 1.5 mg/animal, 100 µL Glycerol, 1.0 hr, individual rats): 55.3 ng/mL and 39.4 ng/mL | Plasma concentration (ID 1.5 mg/animal, 100 µL Glycerol, 1.5 hr, individual rats): 29.6 ng/mL and 47.6 ng/mL and 63.5 ng/mL | Plasma concentration (ID 1.5 mg/animal, 100 µL Glycerol, 2.0 hr, individual rats): 30.8 ng/mL and 37.4 ng/mL and 94.5 ng/mL | Tmax (ID 1.5 mg/animal, 100 µL Glycerol, individual rats): 2.00 h | t1/2 (ID 1.5 mg/animal, 100 µL Glycerol, mean (n = 1)): 1.77 h | Plasma concentration (ID 1.5 mg/animal, 150 µL Glycerol, 0.25 hr, individual rats): 57.9 ng/mL and 96.3 ng/mL | Plasma concentration (ID 1.5 mg/animal, 150 µL Glycerol, 0.5 hr, individual rats): 919 ng/mL and 57.8 ng/mL and 55.9 ng/mL | Plasma concentration (ID 1.5 mg/animal, 150 µL Glycerol, 0.83 hr, individual rats): 72.7 ng/mL and 108 ng/mL | Plasma concentration (ID 1.5 mg/animal, 150 µL Glycerol, 1.0 hr, individual rats): 60.6 ng/mL and 36.6 ng/mL | Plasma concentration (ID 1.5 mg/animal, 150 µL Glycerol, 1.5 hr, individual rats): 46.8 ng/mL and 46.9 ng/mL and 16.0 ng/mL | Plasma concentration (ID 1.5 mg/animal, 150 µL Glycerol, 2.0 hr, individual rats): 37.7 ng/mL and 33.4 ng/mL and 16.7 ng/mL | tmax (second line so headed, Table 10) (ID 1.5 mg/animal, 150 µL Glycerol, individual rats): 1.16 h | half-life (male, Sprague-Dawley, rat, in vivo, 1.5 mg, 50 µL PBS, 50 µL blank Capmul MCM L8 -2 hr, individual rats): 0.86 h | half-life (male, Sprague-Dawley, rat, in vivo, 1.5 mg, 50 µL PBS, 50 µL blank Capmul MCM L8 -2 hr, mean (n = 1)): 0.86 h | half-life (male, Sprague-Dawley, rat, in vivo, 1.5 mg, 100 µL Glycerol, individual rats): 1.77 h | half-life (male, Sprague-Dawley, rat, in vivo, 1.5 mg, 100 µL Glycerol, mean (n = 1)): 1.77 h | half-life (male, Sprague-Dawley, rat, in vivo, 1.5 mg, 150 µL Glycerol, mean (n = 2)): 1.63 h | Tmax (male, Sprague-Dawley, rat, in vivo, 1.5 mg, tmax (second line so headed, Table 10), ID 1.5 mg/animal, 150 µL Glycerol, individual rats): 2.09 h | Tmax (male, Sprague-Dawley, rat, in vivo, 1.5 mg, tmax (second line so headed, Table 10), ID 1.5 mg/animal, 150 µL Glycerol, mean): 1.63 h | Tmax (male, Sprague-Dawley, rat, in vivo, 1.5 mg, tmax, ID 1.5 mg/animal, 50 µL PBS, 50 µL blank Capmul MCM L8 -2 hr, mean): 1 h | Tmax (male, Sprague-Dawley, rat, in vivo, 1.5 mg, tmax, ID 1.5 mg/animal, 50 µL PBS, 150 µL blank glycerol -2 hr, mean): 0.75 h | Tmax (male, Sprague-Dawley, rat, in vivo, 1.5 mg, tmax, ID 1.5 mg/animal, 100 µL Glycerol, mean): 0.72 h
